Data on 11 compounds can be found in patent US20240174675A1, “SMALL MOLECULE REGULATORS OF ALVEOLAR TYPE 2 CELL PROLIFERATION FOR THE TREATMENT OF PULMONARY DISEASES” (THE SCRIPPS RESEARCH INSTITUTE, priority 2021, published 2024).

Structures are written as SMILES. Where a name gives a salt, the structure may show the parent alone.

This assay deals with T1, Human DPP4 (Homo sapiens, UniProt P27487).
T1 construct: purchased Sigma-Aldrich MAK088
Description: DPP4 activity assay (DPP4 Activity Assay Kit, fluorescent substrate). It counts as biochemical. The note with it: Human DPP4; read-out: DPP4 inhibition IC50 [nM]). How it is done: DPP4 activity assay. Human DPP4 activity assay data were obtained using a DPP4 Activity Assay Kit (Sigma-Aldrich, MAK088) according to the manufacturer's instructions. Briefly, 10 μL of DPP4 Assay Buffer were transferred per well in low volume 384-well plates before transferring 10 μL of test compound dissolved in DPP4 assay buffer. To each well was added 5 μL of Master Reaction Mix containing a fluorescent substrate that becomes fluorescent upon cleavage by the enzyme. Fluorescence intensity measurements were recorded at 1-minute time intervals over the course of 20 minutes using an Envision Multimode Plate Reader (PerkinElmer).

T1 sequence (P27487 whole entry): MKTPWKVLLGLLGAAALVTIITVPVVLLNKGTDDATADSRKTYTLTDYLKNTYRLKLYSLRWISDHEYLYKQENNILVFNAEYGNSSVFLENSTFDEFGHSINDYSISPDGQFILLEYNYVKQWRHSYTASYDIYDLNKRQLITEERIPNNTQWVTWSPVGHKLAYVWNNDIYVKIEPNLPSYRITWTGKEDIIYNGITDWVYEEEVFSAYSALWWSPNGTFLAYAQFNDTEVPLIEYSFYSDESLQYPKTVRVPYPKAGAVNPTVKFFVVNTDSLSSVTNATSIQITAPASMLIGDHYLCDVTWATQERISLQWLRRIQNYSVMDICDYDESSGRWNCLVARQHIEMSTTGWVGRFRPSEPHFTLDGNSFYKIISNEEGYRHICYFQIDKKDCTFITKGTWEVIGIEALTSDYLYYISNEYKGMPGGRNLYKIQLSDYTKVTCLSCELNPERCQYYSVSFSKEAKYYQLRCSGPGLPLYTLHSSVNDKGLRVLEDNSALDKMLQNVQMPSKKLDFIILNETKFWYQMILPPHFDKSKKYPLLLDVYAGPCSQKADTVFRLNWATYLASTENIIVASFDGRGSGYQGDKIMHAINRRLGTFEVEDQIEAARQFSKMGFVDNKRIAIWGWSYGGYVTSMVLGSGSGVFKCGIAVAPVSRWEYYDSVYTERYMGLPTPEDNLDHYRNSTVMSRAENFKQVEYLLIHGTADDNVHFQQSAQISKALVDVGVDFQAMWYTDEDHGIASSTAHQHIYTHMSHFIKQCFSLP

In general, IC50 refers to the concentration that gives 50% inhibition. For `CCCCCCCS(=O)C12CC3C[C@@H](CC(NCC(=O)N4CCC[C@H]4C#N)(C3)C1)C2` (stereo in doubt) [Compound 3, (2S)-1-(((1S,3R,5S)-3-(heptylsulfinyl)adamantan-1-yl)glycyl)pyrrolidine-2-carbonitrile], the IC50 stood at 9 nM.

In the case of `CCCCCCN(CCc1ccc(OCCNC(=O)OCCSC23CC4C[C@@H](CC(NCC(=O)N5CCC[C@H]5C#N)(C4)C2)C3)cc1)C[C@H](O)[C@@H](O)[C@H](O)[C@H](O)CO` (stereo in doubt) [Compound 4, 2-(((1R,3S,5S)-3-((2-((S)-2-cyanopyrrolidin-1-yl)-2-oxoethyl)amino)adamantan-1-yl)thio)ethyl (2-(4-(2-(hexyl((2S,3R,4R,5R)-2,3,4,5,6-pentahydroxyhexyl)amino)ethyl)phenoxy)ethyl)carbamate], the IC50 was 11 nM.

Turning to `N#C[C@@H]1CCCN1C(=O)CN[C@]12CC3CC(C1)C[C@@](OCCO)(C3)C2` (stereo in doubt) [Compound 5, (2S)-1-(((1S,3R,5S)-3-(2-hydroxyethoxy)adamantan-1-yl)glycyl)pyrrolidine-2-carbonitrile], the IC50 is 2.3 nM.

As for `CCCCCCCOC12CC3C[C@@H](CC(NCC(=O)N4CCC[C@H]4C#N)(C3)C1)C2` (stereo in doubt) [Compound 6], the IC50 turned out to be 31 nM.

As for `N#C[C@@H]1CCCN1C(=O)CN[C@]12CC3CC(C1)C[C@@](OCCOCCNC[C@H](O)[C@@H](O)[C@H](O)[C@H](O)CO)(C3)C2` (stereo in doubt) [Compound 11, (2S)-1-(((1S,3R,5S)-3-(2-(2-(((2S,3R,4R,5R)-2,3,4,5,6-pentahydroxyhexyl)amino)ethoxy)ethoxy)adamantan-1-yl)glycyl)pyrrolidine-2-carbonitrile], the IC50 came to 31.6 nM.

With `CCCCCCN(CCc1ccc(OCCNC(=O)OCCOC23CC4C[C@@H](CC(NCC(=O)N5CCC[C@H]5C#N)(C4)C2)C3)cc1)C[C@H](O)[C@@H](O)[C@H](O)[C@H](O)CO` (stereo in doubt) [Compound 13, 2-(((1R,3S,5S)-3-((2-((S)-2-cyanopyrrolidin-1-yl)-2-oxoethyl)amino)adamantan-1-yl)oxy)ethyl (2-(4-(2-(hexyl((2S,3R,4R,5R)-2,3,4,5,6-pentahydroxyhexyl)amino)ethyl)phenoxy)ethyl)carbamate], the IC50 was found to be 23 nM.

`N#C[C@@H]1C[C@@H]2C[C@@H]2N1C(=O)[C@@H](N)[C@]12CC3CC(C[C@](OCCOC(=O)NCc4ccc(CN(C[C@@H](O)[C@H](O)[C@@H](O)[C@@H](O)CO)C[C@@H](O)[C@H](O)[C@@H](O)[C@@H](O)CO)cc4)(C3)C1)C2` (stereo in doubt) [Compound 22, 2-(((1R,3S,5S)-3-((S)-1-amino-2-((1S,3S,5S)-3-cyano-2-azabicyclo[3.1.0]hexan-2-yl)-2-oxoethyl)adamantan-1-yl)oxy)ethyl (4-((bis((2S,3R,4R,5R)-2,3,4,5,6-pentahydroxyhexyl)amino)methyl)benzyl)carbamate trifluoracetate salt]: the IC50 was found to be 6.6 nM.

As for `CCCCCCCC(=O)OC12CC3C[C@@H](CC(NCC(=O)N4CCC[C@H]4C#N)(C3)C1)C2` (stereo in doubt) [Compound 24], the IC50 stood at 238 nM.

As for `CCCCCCCOC(=O)NC12CC3CC(CC(NCC(=O)N4CCC[C@H]4C#N)(C3)C1)C2` [Compound 1, Heptyl(3-((2-((S)-2-cyanopyrrolidin-1-yl)-2-oxoethyl)amino)adamantan-1-yl)carbamate], the IC50 turned out to be 31 nM.

On to `CCCCCCCSC12CC3C[C@@H](CC(NCC(=O)N4CCC[C@H]4C#N)(C3)C1)C2` [Compound 2, (2S)-1-((3-(heptylthio)adamantan-1-yl)glycyl)pyrrolidine-2-carbonitrile], for which the IC50 worked out at 26 nM.

As for `CCCCCCCC(=O)OCOC12CC3CC(CC(NCC(=O)N4CCC[C@H]4C#N)(C3)C1)C2` [Compound 7, ((3-((2-((S)-2-cyanopyrrolidin-1-yl)-2-oxoethyl)amino)adamantan-1-yl)oxy)methyl Octanoate], the IC50 was 32 nM.
